We go through one compound from paper PMC6651024, “LIR Motif-Containing Hyperdisulfide β-Ginkgotide is Cytoprotective, Adaptogenic, and Scaffold-Ready” (Molecules, 2019).

Entries after “also recorded” stand apart in the source; their conditions may differ. Where a SMILES comes first, the peptide text is derived from it.

The test system of one series is Beclin-1 (BECN1). Briefly: Western blot of autophagy marker Beclin-1 in SH-SY5Y cells. It is filed as cell-based, human. Particulars: western blot densitometry relative to GAPDH, normalized to vehicle control, mean, triplicates. On the procedure:
The LIR-containing proteins regulate autophagosome formation by interacting with the protein Atg8 (autophagy-related gene, Atg) family through their LIR sequences. […] The SH-SY5Y cells were cultured with or without β-gB1. The autophagy markers, Beclin-1 (BECN1), LC3B-I, and LC3B-II, were identified and quantified by western blot analysis. Beclin-1 plays an important role in regulating both autophagy and cell death, whereas LC3B is an important component of the autophagy pathway and the most widely used marker for autophagosomes. Two of the processed LC3B protein are LC3B-I and LC3B-II. LC3B-I is a truncated LC3B. In contrast, LC3B-II is a truncated and lipidated version of LC3B-I [28, 29]. Importantly, LC3B-II is centrally involved in the events of autophagosome membrane expansion and fusion. […]
A 25 µg equivalent quantity of each protein samples were resolved on a 10% and 15% SDS-PAGE gel accordingly and transferred onto a nitrocellulose membrane. […] Protein bands were quantitated densitometrically using ImageJ software (ImageJ15.0b, Wayen Rasband, NIH, Bethesda, Maryland, USA), expressed relative to GAPDH, and normalized to the vehicle control cells. […]
Background: A western blot detects proteins with antibodies after separation by electrophoresis.

For series [1], the system named is SH-SY5Y cells. It is filed as cell-based, mouse. Particulars: 48 h hypoxia, MTT. On the procedure:
Autophagy is an integrated stress response that clears the subcellular damages. Previous studies have shown that such damages can be induced by hypoxia and hypoxia-reoxygenation stress. Clearing subcellular damages would increase survivability. In traditional medicine, G. biloba is used as an herbal remedy for acute ischemic stroke and post-stroke recovery. To examine the effects of β-gB1 in hypoxia stress, we used cardio-myoblast H9c2 and SH-SY5Y cells. Cells were cultured with or without β-gB1 and incubated in a hypoxic environment for 48 h before the assessment of cell survival by the MTT assay. […] Importantly, when the concentration of β-gB1 was reduced tenfold from 10 to 1 µM, a 22–24% increase of survivability was still observed in H9c2 and SH-SY5Y cells (Figure 3A–D). […]
Cells were cultured in DMEM with or without β-gB1/S-alkylated β-gB1 (β-gB1Alk) for 48 h under normoxia, hypoxia, and hypoxia-reoxygenation conditions. […] The culture medium was then aspirated, and purple formazan crystals were dissolved in DMSO for colorimetric quantification at 570 nm using a microplate reader with a reference wavelength of 630 nm. […]

For series [2], the system named is H9c2 cells. Briefly: Hypoxia-reoxygenation injury, MTT assay, H9c2. The class given is cell-based, rat. To be noted: H9c2, 1 µM peptide, 24 h hypoxia then 24 h normoxia, triplicates. On the procedure: (§1) Cells were cultured with or without β-gB1 and its S-alkylated β-gB1, first under the hypoxic condition for 24 h and then at a normal oxygen environment for another 24 h. The cell viability under hypoxia-reoxygenation condition was assessed by the MTT assay.
(§2) Rat cardio-myoblast cells (H9c2) and […] neuron-like SH-SY5Y cells were purchased from ATCC and maintained in DMEM (Dulbecco’s modified eagle medium) medium supplemented with 10% fetal bovine serum (FBS), 10,000 U/mL of penicillin, and 10,000 µg/mL of streptomycin at 37 °C, 5% CO2.
(§3) Cells were seeded in a cell culture medium with/without β-gB1 and incubated at 37 °C, 5% CO2 overnight. The next day, the cells were locked inside a BD GasPak EZ anaerobe pouch system (BD Diagnostics, MD) and incubated at 37 °C for the next 48 h for the hypoxia condition. In addition, the cells were cultured under a normal oxygenated environment for the normoxic control. In hypoxia-reoxygenation experiments, the cells were incubated for 24 h in hypoxic conditions before being incubated for another 24 h under normoxia.
(§4) Phosphate-buffered saline (PBS) was used as a vehicle control.

The subject of series [3] is SH-SY5Y cells. The series can be described thus: Hypoxia-reoxygenation injury, MTT assay, SH-SY5Y. To be noted: 1 µM peptide, 24 h hypoxia then 24 h normoxia, triplicates. The class given is cell-based, human. The procedure:
as §1, §2, §3, §4

For series [4], the system named is H9c2 cells. Briefly: MTT-based cell proliferation assay under normoxia, H9c2. Also on record: species or system rat. To be noted: H9c2, 10 µM peptide, 48 h, triplicates.
Description: (§5) In addition, β-gB1 is non-toxic to Vero and BHK (baby hamster kidney) cell lines based on an MTT assay. […] LDH is a cytoplasmic enzyme which is rapidly released into the cell culture medium upon plasma membrane damage and is widely used as a marker for cytotoxicity. Thus, an LDH-release assay measures the level of plasma membrane damage to a cell population.
as §2
Cells were cultured in DMEM with or without β-gB1/S-alkylated β-gB1 (β-gB1Alk) for 48 h under normoxia, hypoxia, and hypoxia-reoxygenation conditions. Phosphate-buffered saline (PBS) was used as a vehicle control. After 48 h, MTT (3-(4,5-dimethylthiazol-2-yl)-2,5-diphenyltetrazolium bromide) reagent was added with a final concentration of 0.5 mg/mL, and it was incubated at 37 °C for 2 h. The culture medium was then aspirated, and purple formazan crystals were dissolved in DMSO for colorimetric quantification at 570 nm using a microplate reader with a reference wavelength of 630 nm. […]

The test system of series [5] is H9c2 cells. The series can be described thus: LDH release cytotoxicity assay, H9c2. It is filed as cell-based, rat. To be noted: H9c2, 10 µM peptide, 48 h, 37 °C; LDH kit, 450 nm; triplicates.
Description: as §5, §2
An LDH release assay was performed using the CytoSelect™ LDH cytotoxicity assay kit (CBA-241, Cell Biolabs, Inc., San Diego, CA, USA). In brief, cells were cultured in DMEM with or without 10 µM of β-gB1 and S-alkylated β-gB1 (β-gB1Alk) for 48 h at 37 °C and 5% CO2. PBS was used for the vehicle control experiment. The culture medium was transferred and mixed with the LDH assay reagent in a ratio of 9:1. The reaction mixture was incubated at 37 °C for 2 h, and colorimetric quantification was performed using a 450 nm wavelength. The assay was performed in experimental triplicates, and statistical calculations and bar graphs were done using GraphPad Prism software (Version 6.01). […]
For orientation: LDH in the medium is a marker of cell lysis.

For the next series, the system named is Candida albicans. To be noted: concentrations up to 100 µM; cited from earlier work.
For series [6], the system named is BHK (baby hamster kidney) cell line. Particulars: MTT assay; cited from earlier work. The source says:
(§6) In addition, β-gB1 is non-toxic to Vero and BHK (baby hamster kidney) cell lines based on an MTT assay. […] LDH is a cytoplasmic enzyme which is rapidly released int ...
Background: Formazan colour is commonly taken as a measure of viable cells.

The subject of the next series is Vero cell line. To be noted: MTT assay; cited from earlier work.
Description: as §6

As for `CC[C@H](C)[C@@H]1NC(=O)[C@@H]2CSSC[C@H](NC(=O)CNC(=O)[C@@H](NC(=O)[C@H](CCC(=O)O)NC(=O)[C@@H](N)Cc3ccc(O)cc3)[C@@H](C)O)C(=O)N[C@@H](CCCCN)C(=O)N[C@@H](CCCNC(=N)N)C(=O)N[C@H]3CSSC[C@@H](C(=O)O)NC(=O)[C@H](CSSC[C@H](NC3=O)C(=O)N[C@@H](Cc3ccc(O)cc3)C(=O)N[C@@H](CC(C)C)C(=O)N[C@@H](CC(=O)O)C(=O)N[C@@H](CCC(=O)O)C(=O)N[C@@H](Cc3ccc(O)cc3)C(=O)NCC(=O)N2)NC(=O)[C@H](CCCNC(=N)N)NC1=O` [β-gB1] (HELM PEPTIDE1{Y.E.T.G.C.K.R.C.C.Y.L.D.E.Y.G.C.I.R.C.C}$PEPTIDE1,PEPTIDE1,5:R3-16:R3|PEPTIDE1,PEPTIDE1,8:R3-20:R3|PEPTIDE1,PEPTIDE1,9:R3-19:R3$$$V2.0; N-terminus and C-terminus assumed), the “Increase of BECN1 expression vs control” value with Beclin-1 (BECN1) came out at 1.5 fold. Also, the “Increase of cell survivability under hypoxia” value with SH-SY5Y cells [1] (1 µM peptide, range printed jointly for H9c2 and SH-SY5Y) is 22–24%. Further, in the series on SH-SY5Y cells [1] (10 µM peptide, compared with 37% in H9c2), the “Cytoprotective effect under hypoxia (in words)” value is recorded as “comparable cytoprotective effect”. Moreover, the entries for the “Increase of cell survivability under hypoxia-reoxygenation” value in the series on H9c2 cells [2] and in the series with SH-SY5Y cells [3] were 24% and 19%, respectively. For the same compound, the “Cell viability (growth or death) under normoxia” value with H9c2 cells [4] was “No change in cell viability; also recorded: no significant effect on the growth or death”. Besides, in the series on H9c2 cells [5], the “Cytotoxicity / cell-membrane damage by LDH release” value is recorded as “no significant cytotoxicity or cell-membrane damaging effects”. In the series with Candida albicans, the Antimicrobial effect entry was “does not exhibit an antimicrobial effect”. Further, the “Toxicity to cell line” value (in series [6]; with Vero cell line) was “non-toxic” in each case.
